In one assay the target is T1, BACE1 (Homo sapiens, UniProt P56817).
T1 construct: recombinant BACE1 protein in a final concentration of 0.04 g/ml
Kind of assay: BACE1 biochemical FRET based assay.

Assay [1] concerns Abeta 1-42 produced and secreted by SKNBE2 cells (BACE1). Kind of assay: BACE1 cellular αLisa assay in SKNBE2 cells, Abeta 1-42. In kind it is cell-based, human. To be noted: SKNBE2 cells expressing hAPP695, 18 hours incubation; for IC50: Homo sapiens, SKNBE2, 18 h, read-out: Cellular αLisa assay in SKNBE2 cells Abeta 42 pIC50 (converted). As for the experimental part: (§1) BACE1 Cellular αLisa Assay in SKNBE2 Cells
(§2) In two αLisa assays the levels of Abeta total and Abeta 1-42 produced and secreted into the medium of human neuroblastoma SKNBE2 cells are quantified. The assay is based on the human neuroblastoma SKNBE2 expressing the wild type Amyloid Precursor Protein (hAPP695). The compounds are diluted and added to these cells, incubated for 18 hours and then measurements of Abeta 1-42 and Abeta total are taken. Abeta total and Abeta 1-42 are measured by sandwich αLisa. αLisa is a sandwich assay using biotinylated antibody AbN/25 attached to streptavidin coated beads and antibody Ab4G8 or cAb42/26 conjugated acceptor beads for the detection of Abeta total and Abeta 1-42 respectively. In the presence of Abeta total or Abeta 1-42, the beads come into close proximity. The excitation of the donor beads provokes the release of singlet oxygen molecules that trigger a cascade of energy transfer in the acceptor beads, resulting in light emission. Light emission is measured after 1 hour incubation (excitation at […] and emission at 615 nm).
(§3) A best-fit curve is fitted by a minimum sum of squares method to the plot of % Controlmin versus compound concentration.

Assay [2] deals with Abeta total produced and secreted by SKNBE2 cells (BACE1). Kind of assay: BACE1 cellular αLisa assay in SKNBE2 cells, Abeta total. The assay is classed as cell-based, human. To be noted: SKNBE2 cells expressing hAPP695, 18 hours incubation; for IC50: Homo sapiens, SKNBE2, 18 h, read-out: Cellular αLisa assay in SKNBE2 cells Abetatotal pIC50 (converted). As for the experimental part:
as §1, §2, §3

The target of another assay is T2, BACE2 (Homo sapiens, UniProt Q9Y5Z0).
T2 construct: recombinant BACE2 protein in a final concentration of 0.4 μg/ml
T2 sequence (Q9Y5Z0 63-518): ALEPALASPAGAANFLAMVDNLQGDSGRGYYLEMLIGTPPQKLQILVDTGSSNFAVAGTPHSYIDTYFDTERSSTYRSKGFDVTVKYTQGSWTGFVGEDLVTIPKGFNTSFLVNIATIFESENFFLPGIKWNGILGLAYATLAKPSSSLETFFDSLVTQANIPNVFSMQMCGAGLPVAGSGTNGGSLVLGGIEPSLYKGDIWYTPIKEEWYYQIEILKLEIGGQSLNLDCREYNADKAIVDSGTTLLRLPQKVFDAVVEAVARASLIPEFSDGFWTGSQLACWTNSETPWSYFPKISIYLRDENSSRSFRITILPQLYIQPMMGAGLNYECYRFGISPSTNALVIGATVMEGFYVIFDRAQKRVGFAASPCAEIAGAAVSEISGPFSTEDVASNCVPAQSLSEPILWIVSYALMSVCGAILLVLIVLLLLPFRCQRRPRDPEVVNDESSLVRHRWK
Kind of assay: BACE2 biochemical FRET based assay. To be noted: recombinant BACE2, 450 min, pH 5.0; read-out: BACE2 Biochemical FRET based assay pIC50 (converted).

[3] abbreviates: recombinant BACE1, 450 min, pH 5.0, read-out: BACE1 Biochemical FRET based assay pIC50 (converted).
Where [4] appears, read: Table 10, comparison with WO2012/085038 compounds, read-out: IC50 (nM), BACE1 biochemical FRET based assay.

Like-named read-outs stand apart in the source and are kept apart here.

T1 sequence (P56817 46-501): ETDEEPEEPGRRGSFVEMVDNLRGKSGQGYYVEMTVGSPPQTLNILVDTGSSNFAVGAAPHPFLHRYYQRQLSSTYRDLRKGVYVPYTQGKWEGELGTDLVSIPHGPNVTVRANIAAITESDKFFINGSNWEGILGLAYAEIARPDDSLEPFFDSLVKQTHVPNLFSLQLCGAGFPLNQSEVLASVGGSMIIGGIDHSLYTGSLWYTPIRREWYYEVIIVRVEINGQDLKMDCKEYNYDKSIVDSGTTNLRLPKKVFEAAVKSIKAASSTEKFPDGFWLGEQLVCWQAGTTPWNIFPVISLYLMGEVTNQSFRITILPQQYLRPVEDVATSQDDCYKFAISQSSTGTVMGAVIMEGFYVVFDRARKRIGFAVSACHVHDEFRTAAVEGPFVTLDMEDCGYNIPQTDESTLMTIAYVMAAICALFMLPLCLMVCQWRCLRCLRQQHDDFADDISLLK

Turning to `C[C@@]1(c2cc(NC(=O)c3ccc(C#N)cn3)ccc2F)Cn2c(cnc2C#N)C(N)=N1` [Compound 9, N-{3-[(6R)-8-Amino-3-cyano-6-methyl-5,6-dihydroimidazo[1,5-a]pyrazin-6-yl]-4-fluorophenyl}-5-cyanopyridine-2-carboxamide], the IC50 was 1.45 nM at BACE1 (setting [3]), 2 nM in assay [1], 2.24 nM in assay [2] and 2.14 nM at BACE2.
Consider `COc1cnc(C(=O)Nc2ccc(F)c(C3(CF)Cn4cncc4C(N)=N3)c2)cn1` (single isomer, unassigned) [Compound 14, N-{3-[8-amino-6-(fluoromethyl)-5,6-dihydroimidazo[1,5-a]pyrazin-6-yl]-4-fluorophenyl}-5-methoxypyrazine-2-carboxamide (R or S)], for which the values for the IC50 on BACE1 (setting [3]) and on BACE2 were 933 nM and 5370 nM, respectively. In addition, the “Cellular αLisa assay in SKNBE2 cells Abeta 42 pIC50” value in assay [1] is 6.07. In assay [2], the “Cellular αLisa assay in SKNBE2 cells Abetatotal pIC50” value came to 6.06.
For `C[C@@]1(c2cc(NC(=O)c3ccc(Cl)cn3)ccc2F)Cn2c(cnc2C(F)F)C(N)=N1` [Compound 11, N-{3-[(6R)-8-amino-3-(difluoromethyl)-6-methyl-5,6-dihydroimidazo[1,5-a]pyrazin-6-yl]-4-fluoropheny}-5-chloropyridine-2-carboxamide], the IC50 at BACE1 (setting [4]) was 3.16 nM; on BACE1 (setting [3]) it was 3.16 nM; in assay [1] it was 0.575 nM; in assay [2] it was 0.631 nM; at BACE2 it was 2.75 nM.
As to `C[C@@]1(c2cc(NC(=O)c3ccc(F)cn3)ccc2F)Cn2cncc2C(N)=N1` [Compound 8, N-{3-[(6R)-8-amino-6-methyl-5,6-dihydroimidazo[1,5-a]pyrazin-6-yl]-4-fluorophenyl}-5-fluoropyridine-2-carboxamide], the IC50 on BACE1 (setting [3]) was 22.4 nM; in assay [1], 19.1 nM; in assay [2], 17.4 nM; on BACE2, 12.6 nM.
Take `COc1cnc(C(=O)Nc2ccc(F)c([C@]3(C)Cn4c(C(F)F)cnc4C(N)=N3)c2)cn1` [76 (WO2012/085038), reference compound]: the IC50 at BACE1 (setting [4]) stood at 83.2 nM.
Still for that read-out and setting: in the case of `C[C@@]1(c2cc(NC(=O)c3ccc(Cl)cn3)ccc2F)Cn2c(C(F)F)cnc2C(N)=N1` [74 (WO2012/085038), reference compound] it was 18.6 nM.
On to `C[C@@]1(c2cc(NC(=O)c3ccc(C#N)cn3)ccc2F)Cn2c(cnc2C(F)F)C(N)=N1` [Compound 10, N-{3-[(6R)-8-amino-3-(difluoromethyl)-6-methyl-5,6-dihydroimidazo[1,5-a]pyrazin-6-yl]-4-fluorophenyl}-5-cyanopyridine-2-carboxamide], for which the IC50 was 3.47 nM at BACE1 (setting [4]); 3.47 nM at BACE1 (setting [3]); 0.955 nM in assay [1]; 1.07 nM in assay [2]; 15.8 nM on BACE2.
Take `C[C@@]1(c2cc(-c3cncnc3)ccc2F)Cn2cncc2C(N)=N1` [Compound 2, (6R)-6-(2-Fluoro-5-pyrimidin-5-ylphenyl)-6-methyl-5,6-dihydroimidazo[1,5-a]pyrazin-8-amine]: the IC50 was 708 nM at BACE1 (setting [3]), 245 nM in assay [1], 229 nM in assay [2] and 7240 nM at BACE2.
`CC(=O)NCc1ncc2n1C[C@@](C)(c1cc(NC(=O)c3ccc(C#N)cn3)ccc1F)N=C2N` [Compound 17, N-(3-{(6R)-3-[(Acetylamino)methyl]-8-amino-6-methyl-5,6-dihydroimidazo[1,5-a]pyrazin-6-yl}-4-fluorophenyl)-5-cyanopyridine-2-carboxamide]: the IC50 was 1.86 nM on BACE1 (setting [3]), 4.79 nM in assay [1] and 5.25 nM in assay [2].
For the molecule `COc1cnc(C(=O)Nc2ccc(F)c([C@]3(C)Cn4c(cnc4C(F)F)C(N)=N3)c2)cn1` [Compound 12, N-{3-[(6R)-8-amino-3-(difluoromethyl)-6-methyl-5,6-dihydroimidazo[1,5-a]pyrazin-6-yl]-4-fluoropheny}-5-methoxypyrazine-2-carboxamide], the IC50 on BACE1 (setting [4]) is 3.8 nM; at BACE1 (setting [3]) it was 3.8 nM; in assay [1] it was 0.813 nM; in assay [2], 0.851 nM; on BACE2 it was 24 nM.
Turning to `COc1cnc(C(=O)Nc2ccc(F)c(C3(CF)Cn4cncc4C(N)=N3)c2)cn1` (single isomer, unassigned) [Compound 15, N-{3-[8-amino-6-(fluoromethyl)-5,6-dihydroimidazo[1,5-a]pyrazin-6-yl]-4-fluorophenyl}-5-methoxypyrazine-2-carboxamide (S or R)], the IC50 at BACE1 (setting [3]) was 2.24 nM; at BACE2, 37.2 nM. For the same molecule, in assay [1], the “Cellular αLisa assay in SKNBE2 cells Abeta 42 pIC50” value worked out at 8.74. Also, the “Cellular αLisa assay in SKNBE2 cells Abetatotal pIC50” value in assay [2] turned out to be 8.74.
For `C[C@@]1(c2cc(NC(=O)c3ccc(C#N)cn3)ccc2F)Cn2c(C(F)F)cnc2C(N)=N1` [75 (WO2012/085038), reference compound], on BACE1 (setting [4]), the IC50 stood at 13.8 nM.
Take `Cc1ncn2c1C(N)=N[C@](C)(c1cc(-c3cncnc3)ccc1F)C2` [Compound 6, (6R)-6-(2-Fluoro-5-pyrimidin-5-ylphenyl)-1,6-dimethyl-5,6-dihydroimidazo[1,5-a]pyrazin-8-amine]: the IC50 (on BACE1 (setting [3]); in assay [1]; in assay [2]) was more than 10000 nM throughout.
As for `C[C@@]1(c2cc(NC(=O)c3ccc(Cl)cn3)ccc2F)Cn2cncc2C(N)=N1` [Compound 3, N-{3-[(6R)-8-amino-6-methyl-5,6-dihydroimidazo[1,5-a]pyrazin-6-yl]-4-fluorophenyl}-5-chloropyridine-2-carboxamide], the IC50 at BACE1 (setting [4]) was 3.16 nM; on BACE1 (setting [3]) it was 3.16 nM; in assay [1] it was 2.95 nM; in assay [2], 2.34 nM; on BACE2, 4.07 nM.
For `Cc1cc(C#N)cnc1C(=O)Nc1ccc(F)c([C@]2(C)Cn3cncc3C(N)=N2)c1` [Compound 7, N-{3-[(6R)-8-amino-6-methyl-5H-imidazo[1,5-a]pyrazin-6-yl]-4-fluoro-phenyl}-5-cyano-3-methyl-pyridine-2-carboxamide], the IC50 on BACE1 (setting [3]) is 3.98 nM; in assay [1], 6.17 nM; in assay [2], 5.5 nM; on BACE2 it was 8.13 nM.
The matching figures for `COc1cnc(C(=O)Nc2ccc(F)c([C@]3(C)Cn4cncc4C(N)=N3)c2)cn1` [Compound 1, N-{3-[(6R)-8-Amino-6-methyl-5,6-dihydroimidazo[1,5-a]pyrazin-6-yl]-4-fluorophenyl}-5-methoxypyrazine-2-carboxamide]: 4.9 nM, 3.31 nM, 2.75 nM and 55 nM.
Taken in the same sequence, the figures for `COc1cnc(C(=O)Nc2ccc(F)c(C3(CF)Cn4cncc4C(N)=N3)c2)cn1` (racemic) [Compound 13, (rac)-N-{3-[8-Amino-6-(fluoromethyl)-5,6-dihydroimidazo[1,5-a]pyrazin-6-yl]-4-fluorophenyl}-5-methoxypyrazine-2-carboxamide] were 8.32 nM, 3.63 nM, 3.63 nM and 93.3 nM.
As for `C[C@@]1(c2cc(NC(=O)c3ccc(C#N)cn3)ccc2F)Cn2c(cnc2CC2CC2)C(N)=N1` [Compound 16, N-{3-[(6R)-8-Amino-3-(cyclopropylmethyl)-6-methyl-5,6-dihydroimidazo[1,5-a]pyrazin-6-yl]-4-fluorophenyl}-5-cyanopyridine-2-carboxamide], the IC50 at BACE1 (setting [3]) is 1.38 nM; in assay [1], 1.91 nM; in assay [2], 2.14 nM; at BACE2, 9.55 nM.

The values above are taken from patent publication US9580433B2 (Janssen Pharmaceutica NV, priority 2013, dated 2017).
